From patent publication US20240262812A1, “N-SUBSTITUTED PHENYLSULFONAMIDE COMPOUND AND USE THEREOF” (Shanghai Leado Pharmatech Co., Ltd., priority 2021, published 2024)

Test system: DSS induced inflammatory colitis in C57BL/6 mice
Experiment: DSS induced inflammatory colitis model in C57BL/6 mice
Type: in vivo, mouse
Details: 10 mg/kg oral once a day, day 0 to day 7; for DAI score: FIG. 3; for length of the colorectum / weight of the colorectum: FIG. 4; for level of colorectal inflammatory factor IL-10 (ELISA) / level of colorectal inflammatory factor TNF-α (ELISA): FIG. 5
Experimental: The therapeutic effect of compounds prepared in some examples of the present invention on DSS (dextran sulfate sodium) induced inflammatory colitis in C57BL/6 mice (corresponding to ulcerative colitis) was investigated.
• Animal species and strains: C57BL/6 mice • Administration record: No administration history • Gender and weight: Female, about 18-20 g • Breeding party/supplier: Shanghai SLAC Laboratory Animal Co., Ltd • Adaptation period: 7 days • Room: SPF Rooms • Indoor temperature: 20-26° C. • Indoor relative humidity: 40-70% • Lighting: Fluorescent lighting, 12-hour illumination (08:00-20:00) and 12 hour no illumination • Animal feeding: 2-5 mice per cage (same administration group) • Food: Unlimited access to feed (disinfected by irradiation, Shanghai SLAC Laboratory Animal Co., Ltd, China) • Water: Unlimited access to drinking water (tap water purified through ultra-pure water filtration system)
A total of 80 C57BL/6 mice were purchased from Shanghai SLAC Laboratory Animal Co., Ltd, of which 10 were used as backup animals to select animals with suitable weight range included in the groups. All backup animals are not subjected to any administration or modeling procedures and will be euthanized uniformly at the end of the experiment.
70 animals were selected on Day 3 and randomly grouped based on animal weight using BioBook software to ensure that the weight values of each group of animals were similar to reduce bias.
3.1 An appropriate amount of DSS powder was dissolved in high-pressure sterilized drinking water solvent and a 3% DSS solution was prepared.
3.2 Induction of Colitis: On day 3, 70 mice were randomly divided into 7 groups according to Table 7. From day 0 to day 4, mice in groups 2 to 7 drank 3% DSS aqueous solution for 5 days, followed by drank normal water ad libitum (from day 5 to before autopsy). The day of initial administration of DSS drinking water was counted as day 0. DSS aqueous solution was wrapped in opaque dark bags to ensure light avoidance. DSS aqueous solution was replaced every 2 days.
3.3. Dosage regimen: See Table 7.
Changes in body weight, feces, and bleeding of all groups of mice were record daily. Three items were scored according to Table 8 below, and the scores were added together to form the daily disease activity index (DAI) score.
After blood collection, the animals were euthanized by inhaling excessive CO2 and dislocation of cervical vertebra. Then the abdominal cavity was cut open and the colorectum was taken out. After removing the tissue around the colon, the longitudinal length from the ileocecal valve to the anus was measured. Afterwards, the colorectum was cut open and the contents of feces were scored. Finally, the intestinal contents were cleaned, and the entire colon was photographed and weighed.
Commercially available ELISA analysis kits were used to analyze the colorectal inflammation factors TNF-α and IL-10 in each group.
The health status of animals and their comprehensive response to DSS and drugs were observed every day. Any abnormal appearance or behavior other than those related to the development of the disease was recorded in detail in the Pharmalegacy Biological Experimental Observation Form.
The data was calculated as mean±standard error. Statistical analysis was performed using Graphpad Prism and SPSS software. The specific data is presented in the form of charts. When P<0.05, it is considered statistically significant.

For CNCc1ccc(NS(=O)(=O)c2ccsc2)c(-c2ccco2)c1 [IA-30], the DAI score was “significantly reduce”, the “length of the colorectum” value was “increase” and the “weight of the colorectum” value was “decrease”. The “level of colorectal inflammatory factor IL-10 (ELISA)” value was “significantly reduce” and the “level of colorectal inflammatory factor TNF-α (ELISA)” value was “significantly reduce”.
With CNCc1ccc(-c2nccs2)c(NS(=O)(=O)c2ccccc2)c1 [IA-51, N-(5-((methylamino)methyl)-2-(thiazol-2-yl)phenyl)benzenesulfonamide] the DAI score was “significantly reduce”, the “length of the colorectum” value was “increase” and the “weight of the colorectum” value was “decrease”. For the same molecule, the “level of colorectal inflammatory factor IL-10 (ELISA)” value was “significantly reduce” and the “level of colorectal inflammatory factor TNF-α (ELISA)” value was “significantly reduce”.
In the case of CNCc1ccc(-c2cc[nH]n2)c(NS(=O)(=O)c2ccccc2)c1 [IA-55, N-(5-((methylamino)methyl)-2-(1H-pyrazol-3-yl)phenyl)benzenesulfonamide], the DAI score is reported as “significantly reduce”, the “length of the colorectum” value is reported as “increase” and the “weight of the colorectum” value is reported as “decrease”. For the same molecule, the “level of colorectal inflammatory factor IL-10 (ELISA)” value was “significantly reduce” and the “level of colorectal inflammatory factor TNF-α (ELISA)” value was “significantly reduce”.
With NCc1ccc(NS(=O)(=O)c2ccsc2)c(-c2ccco2)c1 [ID-5] the DAI score was “significantly reduce”, the “length of the colorectum” value was “increase” and the “weight of the colorectum” value was “decrease”. For the same molecule, the “level of colorectal inflammatory factor IL-10 (ELISA)” value was “significantly reduce” and the “level of colorectal inflammatory factor TNF-α (ELISA)” value was “significantly reduce”.
